Test results reported in patent US12582639B2, “Preventive, relief or therapeutic use of 2,3,5-substituted thiophene compound against gastrointestinal stromal tumor” (PHAROS IBIO CO., LTD, priority 2020, dated 2026).

What was measured:
GIST-T1 cell line [1] = assay: Growth inhibition of gastrointestinal stromal tumor cell line GIST-T1 (Celltiter glo); type: cell-based; details: Homo sapiens, GISTT1; for GI50: GIST-T1, 72 hours
Protocol: Specifically, 100 μl of the GIST-T1 cell line was added to each well of a 96-well plate at a concentration of 5,000 cells/100 μl. After 24 hours of stabilization, 100 μl of the GIST-T1 cell line was treated with 0.5 μl of each of control compounds and PHI-101 (⅓ serial dilution, 10 points) to a final concentration of up to 50 μM, and cultured at 37° C. under 5% CO2 for 72 hours. As the control compounds, imatinib, dasatinib, sunitinib and ponatinib, which are c-kit inhibitors, were used. After culture, the cells were counted using a Celltiter glo assay kit (Promega), and the 50% growth inhibition values (GI50, μM) of the control compounds and PHI-101 were measured.

Parental Ba/F3 cell line = assay: Growth inhibition of parental Ba/F3 cell line (Celltiter glo); type: cell-based; details: Mus musculus, BaF3; Parental Ba/F3, 72 hours
[2] = system: c-kit D816V Ba/F3 cell line; assay: Growth inhibition of c-kit D816V mutant Ba/F3 cell line (Celltiter glo); type: cell-based; details: for GI50: Mus musculus, BaF3, cKIT D816V Ba/F3, 72 hours
Protocol: Specifically, 100 μl of a Ba/F3 cell line with a c-kit D816V mutation (FIG. 1) was added to each well of a 96-well plate at a concentration of 10,000 cells/100 μl. After 4 hours, 100 μl of the Ba/F3 cell line was treated with 0.5 μl of each of control compounds and PHI-101 (10-point 1:3 serial dilutions) to a final concentration of up to 50 μM, and cultured at 37° C. under 5% CO2 for 72 hours. As the control compounds, imatinib and sunitinib which are c-kit inhibitors were used. After culture, the cells were counted using a Celltiter glo assay kit (Promega), and the 50% growth inhibition values (GI50, μM) of the control compounds and PHI-101 were measured.

[3] = system: c-kit D816V mutant Ba/F3 cell line; assay: Apoptotic effect, Annexin V-PI FACS analysis; type: cell-based; details: 24 hours
Protocol: Specifically, the c-kit D816V mutant Ba/F3 cell line was adjusted to a concentration of 1×10^6 cells/ml and treated with each of PHI-101 at concentrations of 0.1, 1 and 10 μM and the control compound sunitinib at concentrations of 1 and 10 μM for 24 hours. Thereafter, the medium was removed and the cells were washed once with 1 ml PBS. The PBS was removed by centrifugation at 1,000 rpm for 5 minutes. The cells were dissolved in 100 μl of PBS containing Ca^2+ and Mg^2+ and allowed to react with 5 μl of Annexin V for 20 minutes. After completion of the reaction, 400 μl of PBS containing Ca^2+ and Mg^2+ was added, and 5 μl of propidium iodide (PI) was added, and then the degree of apoptotic cell death was analyzed by FACS (fluorescence activated cell sorter) assay using a flow cytometer (FACS-C6, BD).

GIST-T1 cell line [4] = assay: Apoptotic effect, cleaved PARP Western blot in GIST-T1; type: cell-based, human; details: 0.01, 0.1 and 1 μM, 24 hours
Protocol: (§1) Specifically, the c-kit D816V mutant Ba/F3 cell line was dispensed at a density of 1×10^6 cells/ml, treated with each of the control compounds and PHI-101 at concentrations of 0.1, 1 and 10 μM, and then cultured for 2 hours. Lysates of the cells were obtained using lysis buffer (50 mM Tris-HCl pH7.5, 1% NP40, 1 mM EDTA, 150 mM NaCl, 5 mM, Na3VO4 and 2.5 mM NaF, and a protease inhibitor cocktail). Equal amounts of the cell lysates were electrophoresed using 8% SDS-PAGE gel at 100 V for 1 hour and 30 minutes, and the separated protein was electrically transferred to nitrocellulose membranes. […] Next, the membranes were washed three times with TBST for 5 minutes each time and treated with a chemiluminescent substrate reagent, and the expression level of the protein was measured by detecting luminescence with an X-ray film in the dark.
A gastrointestinal stromal tumor cell line was treated with PHI-101, and the level of cleaved PARP, an apoptosis marker, was analyzed. […]
Specifically, the apoptotic effect of PHI-101 against the GIST-T1 cell line was analyzed in the same manner as in Example 1-2, except that the GIST-T1 cell line was treated with each of the control compounds at a concentration of 1 μM and PHI-101 at concentrations of 0.01, 0.1 and 1 μM for 24 hours, and that cleaved PARP diluted at 1:3,000 was used as a primary antibody.

[5] = system: c-kit D816V Ba/F3 cell line xenograft mouse model; assay: Survival time of c-kit D816V Ba/F3 cell line xenograft mouse model; type: in vivo; details: oral, daily
Protocol: As mice, 6-8-week-old NOD SCID female mice (18 to 22 g) (GemPharmatech Co., Ltd.) were prepared. Mice were acclimatized for 7 days before use in the experiment, and mice with abnormal health were excluded from the experiment. Mice were bred in a cage (300×180×150 mm) at a 22±3° C. and a relative humidity of 40% to 70% with a 12-hr light/12-hr dark cycle. Mice were allowed access to sterilized dry granular food (Beijing Keaoxieli Feed Co., Ltd., Beijing, China) and water ad libitum for the entire experimental period except for the period specified in the protocol.
50 ml of c-kit D816V mutant Ba/F3 cells suspension cultured in a 75 T flask were placed in a conical tube and centrifuged at 800 rpm for 2 minutes, centrifuged with DPBS (Dulbecco's Phosphate-Buffered Saline, Welgene) at 800 rpm for 2 minutes, washed, and then suspended in RPMI1640 (Welgene) without antibiotics and fetal bovine serum (FBS). Thereafter, the cells were stained with trypan blue and counted with a hemocytometer. […]
Specifically, while the presence or absence of abnormalities in the mouse model of Example 3-1 was monitored daily by checking the skin condition, bleeding and stool status, whether the body weight changed was checked by measuring the mouse weight at intervals of 3 days after the start of oral administration of each drug. […]

[6] = system: c-kit phosphorylation and downstream signaling (p-AKT, p-ERK1/2, p-S6) in GIST-T1 cell line; assay: Inhibition of c-kit phosphorylation and downstream signaling in GIST-T1 cells (Western blot); type: cell-based, human; details: 0.01, 0.1 and 1 μM
[7] = system: c-kit phosphorylation and downstream signaling (p-STAT3, p-ERK1/2) in c-kit D816V mutant Ba/F3 cell line; assay: Inhibition of c-kit phosphorylation and downstream signaling in c-kit D816V Ba/F3 cells (Western blot); type: cell-based; details: 0.1, 1 and 10 μM, 2 hours; controls sunitinib and dasatinib
Protocol: The inhibitory activities of the control compound and PHI-101 against c-kit phosphorylation and downstream signaling (p-STAT3, p-ERK1/2) in the c-kit D816V mutant Ba/F3 cell line were measured, and as control compounds, sunitinib and dasatinib were used.
as §1, with “membranes. The membranes were blocked with 5% skim milk at room temperature for 30 minutes, and allowed to react with primary antibodies (diluted 1:5,000), including p-c-kit tyrosine 719 (Y719), p-STAT3 tyrosine 705 (Y705) and p-ERK1/2 threonine 202/tyrosine 204 (T202/Y204) at 4° C. for 16 to 20 hours.” for “membranes.”

[8] = system: c-kit D816V mutant Ba/F3 cell line; assay: Cell cycle FACS assay; type: cell-based; details: 1 μM, 24 hours
Protocol: The c-kit D816V mutant Ba/F3 cell line was treated with 1 μM of PHI-101, and then the SubG1/GO-1 population was analyzed by cell cycle FACS assay.
Specifically, the c-kit D816V mutant Ba/F3 cell line was adjusted to a concentration of 1×10^6 cells/ml and treated with each of PHI-101 and the control compound sunitinib at a concentration of 1 μM for 24 hours. Thereafter, the medium was removed, and the c-kit D816V mutant Ba/F3 cell line was fixed in 70% ethanol at 4° C. for 24 hours, and then incubated in a PBS buffer solution containing 40 μg/ml of propidium iodide (PI) and 100 μg/ml of RNase for 30 minutes to completely stain the total DNA. Cell cycle analysis of the stained cells was performed using a flow cytometer (FACS-C6, BD). The proportion of cells in G0/G1 phase, S phase and G2/M phase was measured, and based on the measurement results, the SubG1/GO-1 population was determined.

| GI50 (GIST-T1 cell line [1]) | GI50 [2] | Structure (SMILES) | GI50 (Parental Ba/F3 cell line) | inhibitory activity against the c-kit D816V Ba/F3 mutant cell line compared with control compounds ([2]; controls imatinib and sunitinib) | selectivity for c-kit D816V Ba/F3 mutant cell line versus parental Ba/F3 cell line ([2]; from GI50 values of Table 1) | induction of apoptosis ([3]; 0.1 μM) | apoptosis, concentration dependence ([3]; 0.1, 1 and 10 μM) | level of cleaved PARP (apoptosis marker) (GIST-T1 cell line [4]) | prolongation of survival time compared to vehicle-administered group ([5]; 7 mg/kg) | survival time compared to vehicle-administered group ([5]; 80 mg/kg) | c-kit phosphorylation and downstream signaling [6] | inhibitory activity against p-c-kit (Y719) phosphorylation [7] | IC50 (GIST-T1 cell line [1]; GIST-T1 proliferation, read-out: IC50 value in GIST-T1 cells) | SubG1/GO-1 population [8] |
| --- | --- | --- | --- | --- | --- | --- | --- | --- | --- | --- | --- | --- | --- | --- |
| 0.073 µM |  | Cc1nc(Nc2ncc(C(=O)Nc3c(C)cccc3Cl)s2)cc(N2CCN(CCO)CC2)n1 [Dasatinib, dasatinib] |  |  |  |  |  |  |  |  |  |  |  |  |
| 0.064 µM | 11.5 µM | Cc1ccc(NC(=O)c2ccc(CN3CCN(C)CC3)cc2)cc1Nc1nccc(-c2cccnc2)n1 [Imatinib, imatinib] | 12.7 µM |  |  |  |  |  |  |  |  |  |  |  |
| 0.026 µM | 2.65 µM | CCN(CC)CCNC(=O)c1c(C)[nH]c(/C=C2\C(=O)Nc3ccc(F)cc32)c1C [Sunitinib, sunitinib] | 13.3 µM |  |  |  |  |  |  |  |  |  |  |  |

| Structure (SMILES) | GI50 (GIST-T1 cell line [1]) | GI50 [2] | GI50 (Parental Ba/F3 cell line) | inhibitory activity against the c-kit D816V Ba/F3 mutant cell line compared with control compounds ([2]; controls imatinib and sunitinib) | selectivity for c-kit D816V Ba/F3 mutant cell line versus parental Ba/F3 cell line ([2]; from GI50 values of Table 1) | induction of apoptosis ([3]; 0.1 μM) | apoptosis, concentration dependence ([3]; 0.1, 1 and 10 μM) | level of cleaved PARP (apoptosis marker) (GIST-T1 cell line [4]) | prolongation of survival time compared to vehicle-administered group ([5]; 7 mg/kg) | survival time compared to vehicle-administered group ([5]; 80 mg/kg) | c-kit phosphorylation and downstream signaling [6] | inhibitory activity against p-c-kit (Y719) phosphorylation [7] | IC50 (GIST-T1 cell line [1]; GIST-T1 proliferation, read-out: IC50 value in GIST-T1 cells) | SubG1/GO-1 population [8] |
| --- | --- | --- | --- | --- | --- | --- | --- | --- | --- | --- | --- | --- | --- | --- |
| NC(=O)Nc1cc(C#Cc2cccc(F)c2)sc1C(=O)N[C@H]1CCCNC1 [PHI-101, (S)-5-((3-fluorophenyl)ethynyl)-N-(piperidin-3-yl)-3-ureidothiophene-2-carboxamide] | 0.036 µM | 0.912 µM | 5.01 µM | higher inhibitory activity against the c-kit D816V Ba/F3 mutant cell line than the control compounds | higher selectivity for the c-kit D816V Ba/F3 mutant cell line than for the parental Ba/F3 cell line | strongly induced apoptosis | apoptosis increased in a concentration-dependent manner | increased in a manner dependent on the concentration of PHI-101 | 3 days | doubled | decreased c-kit phosphorylation and downstream signaling in a concentration-dependent manner | higher inhibitory activity against p-c-kit (Y719) phosphorylation than the control compounds | 0.036 µM | increased |
